Common to all, as to type: cell-based
Experiment [1] concerns NCI-H28 human mesothelioma cell line. Briefly: Cell growth inhibition test (CellTiter-Glo), NCI-H28. Conditions: NCI-H28 cells. The protocol: (§1) The cell growth for the compounds prepared in Examples was measured by CellTiter-Glo® Luminescent Cell Viability (Promega, Catalog #G7571) method using NCI-H226 (addexbio), NCI-H28 (Korea Cell Line Bank) and MSTO-211H (elabscience) human mesothelioma cell lines. This evaluation method is a method in which when luciferase enzyme is activated by ATP flowing out from living cells, it reacts with a luciferin substrate, and the enzyme activity at this time is measured to confirm cell viability.
(§2) Specifically, NCI-H226, NCI-H28, and MSTO-211H cells were prepared in 100 μL of cell culture medium (RPMI medium, 10% FBS, 1% P/S, 4.5 g/L D-Glucose, 2.383 g/L HEPES Buffer, L-Glutamine, 1.5 g/L Sodium Bicarbonate, 110 mg/L Sodium pyruvate) in a white clear bottom 96-well microplate. The prepared plate was incubated in a 5% CO2 incubator at 37° C. for 24 hours, and then the previously prepared compounds of Examples were finally treated at concentrations of 0.001, 0.01, 0.1, 1, and 10 μM, which was repeated three times for all treatment solutions. The plates treated with the compounds of Examples were incubated in a 5% CO2 incubator at 37° C. 100 μL/well of the substrate aqueous solution containing luciferin was added to a white clear-bottom 96 well microplate, thereby initiating an enzyme reaction. The reaction was performed at room temperature in the dark for 10 minutes, and the luminescence was measured using a Flexstation3 multi-mode microplate reader. In accordance with the instructions for the CellTiter-Glo™ Luminescednt Cell Viability, the luciferase enzyme activity, which represents the amount of ATP, was measured by a chemiluminescence method, and the inhibitory activity of the compounds according to the present invention was calculated. The results of each compound were analyzed using Microsoft Excel, and the IC50 values were calculated using GraphPad Prism software.
On the technique in general: ATP-based viability assays read luminescence as a measure of living cells.

Experiment [2] has as its system NCI-H226 human mesothelioma cell line. Briefly: Cell growth inhibition test (CellTiter-Glo), NCI-H226. The conditions noted are these: NCI-H226 cells. As to the method: as §1, §2
The subject of experiment [3] is MSTO-211H human mesothelioma cell line. Briefly: Cell growth inhibition test (CellTiter-Glo), MSTO-211H. The conditions noted are these: MSTO-211H cells. The protocol:
as §1, §2

For experiment [4], the system named is transcription factor TEAD. The experiment can be described thus: Activity inhibition test of transcription factor TEAD (ONE-Glo luciferase, TEAD reporter-MCF7 cell line). The conditions noted are these: Homo sapiens; TEAD Reporter-MCF7 cells, 24 hours treatment, luciferase luminescence. As to the method: The transcription factor TEAD activity of the compounds prepared in Examples was measured by the ONE-Glo™ Luciferase assay (Promega, Catalog #E6110) method using the Hippo Pathway TEAD reporter-MCF7 recombinant cell line (BPS Bioscience, Catalog #60618).
Specifically, the TEAD Reporter-MCF7 cell line contains the firefly luciferase gene whose expression is regulated under the control of TEAD response elements in the MCF7, which is a human breast cancer cell line. In the cell line, a non-phosphorylated YAP/TAZ exists in the nucleus in a non-stressed condition, which continuously induces expression of the luciferase reporter.
TEAD Reporter-MCF7 cells were prepared in 100 μL of cell culture medium (MEM medium, 10% FBS, 1% P/S, 400 μg/mL Geneticin, 1% […], 1 mM NA pyruvate, 10 μg/mL Insulin) in a white clear bottom 96-well microplate. The prepared plate was incubated in a 5% CO2 incubator at 37° C. for 24 hours, and then the previously prepared compounds of Examples were finally treated at concentrations of 0.001, 0.01, 0.1, 1, and 10 µM, which were repeated three times for all treatment solutions. The plates treated with the compounds of Examples were incubated in a 5% CO2 incubator at 37° C. for 24 hours. 100 μL/well of the substrate aqueous solution containing luciferin was added to a white clear-bottom 96 well microplate, thereby initiating an enzyme reaction. The reaction was performed at room temperature for 5 minutes, and the luminescence (integration time 1000 ms) was measured using a Flexstation3 multi-mode microplate reader. In accordance with the instructions for the ONE-Glo™ Luciferase Assay, the luciferase enzyme activity, which represents the activity of the transcription factor TEAD, was measured by a chemiluminescence method, and the inhibitory activity of the compound according to the present invention was calculated. The results of each compound were analyzed using Microsoft Excel, and the IC50 values were calculated by GraphPad Prism software.

For `C=CC(=O)Nc1ccc(Nc2ncc(C(F)(F)F)cc2Cl)c(-c2ccn(C)n2)c1` [Example 53, N-(4-((3-chloro-5-(trifluoromethyl)pyridin-2-yl)amino)-3-(1-methyl-1H-pyrazol-3-yl)phenyl)acrylamide], the IC50 (as a rule, the concentration at which inhibition is half-maximal) was 1670 nM in experiment [1], 62.8 nM in experiment [2], 8240 nM in experiment [3] and 30.7 nM in experiment [4].

Turning to `C=CC(=O)Nc1ccc(Nc2ccc(C(F)(F)F)cn2)c(-c2cn(C)cn2)c1` [Example 6, N-(3-(1-methyl-1H-imidazol-4-yl)-4-((5-(trifluoromethyl)pyridin-2-yl)amino)phenyl)acrylamide], the IC50 in experiment [1] was 1380 nM; in experiment [2], 3 nM; in experiment [3] it was 221 nM; in experiment [4], 10 nM.

In the case of `C=CC(=O)Nc1ccc(Nc2cc(Cl)c(C(F)(F)F)cn2)c(-c2ccn(C)n2)c1` [Example 37, N-(4-((4-chloro-5-(trifluoromethyl)pyridin-2-yl)amino)-3-(1-methyl-1H-pyrazol-3-yl)phenyl)acrylamide], the half-inhibitory concentration (IC50) was 1100 nM in experiment [1], 13 nM in experiment [2], 3750 nM in experiment [3] and 4.5 nM in experiment [4].

Turning to `C=CC(=O)Nc1cnc(Nc2ccc(C(F)(F)F)cn2)c(-c2ccccn2)c1` [Example 39, N-(2′-((5-(trifluoromethyl)pyridin-2-yl)amino)-[2,3′-bipyridin]-5′-yl)acrylamide], the IC50 in experiment [1] came out at 3280 nM; in experiment [2] it was 15.8 nM; in experiment [3], 194 nM; in experiment [4], 40.3 nM.

(Values after US20250074889A1, “Novel Aminobenzene Derivative Having Cancer Cell Growth Inhibitory Effect, and Preventive or Therapeutic Pharmaceutical Composition Containing Same as Active Ingredient” (Daewoong Pharmaceutical Co., Ltd., priority 2022, published 2025).)
